Measured values: ChEMBL document CHEMBL1201862, “PubChem BioAssay data set” (2004)
Active and inactive are the calls of the source.

What was measured:
[1] = target: Disintegrin and metalloproteinase domain-containing protein 17 (Homo sapiens, UniProt P78536); assay: ADAM17 protease inhibitors, dose response, counter-screen for ADAM10 exosite inhibitor project, biochemical, quenched FRET substrate (AID 743253)
[2] = ADAM10 inhibitors, peptide cleavage, dose response, biochemical, QFRET (AID 743254);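 further: ADAM10 enzyme with the DM2 quenched FRET peptide as substrate; EDANS fluorescence gain as the protease cuts the substrate; inhibitor potency against ADAM10 proteolytic activity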
[3] = cytotoxicity toward DRD oncogenic fibroblasts, dose response, cell-based, non-viral oncogenic, luminescence (AID 1934); assay type: functional; settings: Homo sapiens
BJ [4] = assay: cytotoxicity toward BJ-TERT-LT-ST fibroblasts, dose response, cell-based, RAS-independent, luminescence (AID 1935); assay type: functional; settings: Homo sapiens;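 further: BJ fibroblasts immortalized with TERT plus LT and ST oncogenes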
BJ [5] = assay: cytotoxicity toward BJ-TERT fibroblasts, dose response, cell-based, RAS-independent, luminescence (AID 1933); assay type: functional; settings: Homo sapiens
[6] = HepG2 cell cytotoxicity, dose response, cytotoxicity control, plate reader, cherry-pick, antagonist series (AID 743416); assay type: functional, cell-based
[7] = HEK293 cell cytotoxicity, dose response, cytotoxicity control, plate reader, cherry-picked samples (AID 743446); assay type: functional, cell-based
[8] = LGR2 antagonists, dose response, cell-based, HEK293, CRE-luciferase reporter, cherry pick, set 2 (AID 743343); assay type: functional;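 further: transfected cells were stimulated with diluted bursicon conditioned medium after compound addition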
[9] = Luminescence Cell-Based Dose Response HTS to Identify Inhibitors of 5'UTR Stem-Loop Driven Prion Protein mRNA Translation in H4 Neuroglioblastoma Cells. [Related pubchem assays: 1827 (Project Summary), 1813 (Primary HTS)]; assay type: functional
[10] = A549 cell cytotoxicity, dose response, cytotoxicity control, plate reader, cherry-pick, antagonist series (AID 743412); assay type: functional, cell-based
[11] = MC4R antagonists, dose response, counter-screen for LGR2 antagonist project, cell-based, plate reader, cherry pick (AID 743444); assay type: functional;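 further: transfected HEK 293 cells stimulated with alpha-MSH peptide; potency of inhibitors of the alpha-MSH evoked signal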
BJ [12] = assay: cells; assay type: functional, cell-based; settings: Homo sapiens
cells [13] = assay type: functional, cell-based
[14] = inhibitors of SNCA 5'UTR-driven reporter translation, confirmation, H4 neuroglioma cells, luminescence (AID 1988); assay type: functional, cell-based
[15] = target: T1, Nuclear receptor subfamily 0 group B member 1 (Homo sapiens, UniProt P51843); assay type: functional, cell-based;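 further: HEK293T cells transfected with SF-1 and DAX-1 plus StAR promoter luciferase reporter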
T1 sequence (P51843 whole entry): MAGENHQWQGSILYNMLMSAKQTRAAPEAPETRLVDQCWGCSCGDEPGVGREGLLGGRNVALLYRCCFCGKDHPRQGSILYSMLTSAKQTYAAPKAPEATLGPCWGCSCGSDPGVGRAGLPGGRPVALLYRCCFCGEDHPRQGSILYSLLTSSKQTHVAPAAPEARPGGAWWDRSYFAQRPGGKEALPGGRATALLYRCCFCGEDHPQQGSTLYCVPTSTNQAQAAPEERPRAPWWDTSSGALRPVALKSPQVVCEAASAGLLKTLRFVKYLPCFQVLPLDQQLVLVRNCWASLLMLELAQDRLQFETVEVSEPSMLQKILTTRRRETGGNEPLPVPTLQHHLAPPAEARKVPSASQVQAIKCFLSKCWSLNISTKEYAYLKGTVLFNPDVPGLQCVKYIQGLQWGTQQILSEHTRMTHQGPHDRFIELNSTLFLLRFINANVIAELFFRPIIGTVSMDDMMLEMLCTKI

HEK293 = assay: inhibitors of LMP1-driven NF-kB reporter, dose response, cell-based, HEK293, luciferase, cherry-pick (AID 588343); assay type: functional; settings: Homo sapiens
[16] = target: 5-hydroxytryptamine receptor 2A (Mus musculus, UniProt P35363); assay type: functional, cell-based;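 further: CHO-K1 cells with tagged receptor and beta-arrestin; agonist potency measured as compound-induced activation of the receptor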
Mu-type opioid receptor = Mu-type opioid receptor (Homo sapiens, UniProt P35372); assay type: functional, cell-based;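 further: U2OS cells with beta-arrestin recruitment to OPRM1 by beta-gal complementation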
[17] = target: T2, Low molecular weight phosphotyrosine protein phosphatase (Homo sapiens, UniProt P24666); assay type: functional; settings: read-out: IC50_Mean
T2 sequence (P24666 whole entry): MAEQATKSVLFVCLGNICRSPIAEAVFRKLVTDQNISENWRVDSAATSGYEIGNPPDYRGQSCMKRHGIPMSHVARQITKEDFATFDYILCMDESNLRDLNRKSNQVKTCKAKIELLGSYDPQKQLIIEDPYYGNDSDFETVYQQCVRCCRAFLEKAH

[18] = target: T2, Low molecular weight phosphotyrosine protein phosphatase; assay type: functional; settings: read-out: IC50_Mean; remark: listed apart in the source
[19] = target: T3, Tyrosine-protein phosphatase non-receptor type 11 (Homo sapiens, UniProt Q06124); assay: SHP2 phosphatase inhibition, dose response, selectivity assay for STEP inhibitor project, biochemical (AID 602367); assay type: functional; settings: read-out: IC50_Mean
T3 sequence (Q06124 whole entry): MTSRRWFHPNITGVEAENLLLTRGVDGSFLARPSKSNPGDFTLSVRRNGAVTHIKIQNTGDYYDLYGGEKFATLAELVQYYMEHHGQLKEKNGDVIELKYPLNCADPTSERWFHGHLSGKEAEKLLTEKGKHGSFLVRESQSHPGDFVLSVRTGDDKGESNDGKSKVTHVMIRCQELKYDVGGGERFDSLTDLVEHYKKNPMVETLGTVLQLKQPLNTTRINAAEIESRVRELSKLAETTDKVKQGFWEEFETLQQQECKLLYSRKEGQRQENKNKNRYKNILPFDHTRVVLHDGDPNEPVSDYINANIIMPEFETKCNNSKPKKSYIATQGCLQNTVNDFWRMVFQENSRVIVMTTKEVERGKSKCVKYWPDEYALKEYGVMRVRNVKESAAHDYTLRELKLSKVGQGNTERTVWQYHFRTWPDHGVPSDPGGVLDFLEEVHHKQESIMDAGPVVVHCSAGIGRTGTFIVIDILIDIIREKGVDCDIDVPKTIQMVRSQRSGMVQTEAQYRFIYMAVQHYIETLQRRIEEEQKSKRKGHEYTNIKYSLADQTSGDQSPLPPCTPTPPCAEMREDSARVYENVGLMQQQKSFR

[20] = target: Dual specificity protein phosphatase 3 (Homo sapiens, UniProt P51452); assay: VHR phosphatase inhibition, dose response, selectivity assay for STEP inhibitor project, biochemical (AID 602374); assay type: functional; settings: read-out: IC50_Mean
[21] = target: T4, Carboxy-terminal domain RNA polymerase II polypeptide A small phosphatase 1 (Homo sapiens, UniProt Q9GZU7); assay: inhibitors of CTDSP1, concentration-response testing, biochemical assay, absorbance-based, actives from ultra-high-throughput screening (AID 540297); assay type: functional
T4 sequence (Q9GZU7 whole entry): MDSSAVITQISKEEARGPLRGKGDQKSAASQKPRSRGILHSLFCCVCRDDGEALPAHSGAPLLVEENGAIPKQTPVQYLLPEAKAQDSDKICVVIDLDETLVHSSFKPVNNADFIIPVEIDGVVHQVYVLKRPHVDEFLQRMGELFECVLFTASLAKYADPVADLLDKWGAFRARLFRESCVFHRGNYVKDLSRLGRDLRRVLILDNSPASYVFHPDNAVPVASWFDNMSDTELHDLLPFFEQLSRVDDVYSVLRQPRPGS

[22] = target: T5, Tyrosine-protein phosphatase non-receptor type 5 (Homo sapiens, UniProt P54829); assay: STEP phosphatase inhibitors, confirmation, biochemical, fluorescence intensity, uHTS hits (AID 602372); assay type: functional; settings: read-out: IC50_Mean
T5 sequence (P54829 whole entry): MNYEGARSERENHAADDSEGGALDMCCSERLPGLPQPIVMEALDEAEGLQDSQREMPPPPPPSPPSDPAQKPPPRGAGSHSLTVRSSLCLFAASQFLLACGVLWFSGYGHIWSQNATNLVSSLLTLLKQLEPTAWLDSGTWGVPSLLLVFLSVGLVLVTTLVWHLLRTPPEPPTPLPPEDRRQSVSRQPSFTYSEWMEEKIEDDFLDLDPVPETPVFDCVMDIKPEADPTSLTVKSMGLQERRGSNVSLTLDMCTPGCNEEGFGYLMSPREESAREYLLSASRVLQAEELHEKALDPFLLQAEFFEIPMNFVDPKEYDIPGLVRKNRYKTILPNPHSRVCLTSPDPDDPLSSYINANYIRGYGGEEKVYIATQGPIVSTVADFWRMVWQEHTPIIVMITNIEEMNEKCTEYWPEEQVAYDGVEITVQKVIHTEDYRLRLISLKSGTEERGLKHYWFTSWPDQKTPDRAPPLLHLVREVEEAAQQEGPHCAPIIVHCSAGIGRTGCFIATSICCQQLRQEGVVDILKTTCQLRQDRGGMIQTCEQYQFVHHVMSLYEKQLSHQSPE

[23] = Luminescence Cell-Based Dose Retest to Confirm Inhibitors of Cancer Stem Cells. [Related pubchem assays (depositor defined):AID2717, AID2721]; assay type: functional; settings: Homo sapiens
cells [24] = assay type: functional, cell-based; remark: listed apart in the source
[25] = target: T6, Trace amine-associated receptor 1 (Homo sapiens, UniProt Q96RJ0); assay: Fluorescence-based cell-based high throughput dose response assay to identify agonists of the human trace amine associated receptor 1 (TAAR1).; assay type: functional
T6 sequence (Q96RJ0 whole entry): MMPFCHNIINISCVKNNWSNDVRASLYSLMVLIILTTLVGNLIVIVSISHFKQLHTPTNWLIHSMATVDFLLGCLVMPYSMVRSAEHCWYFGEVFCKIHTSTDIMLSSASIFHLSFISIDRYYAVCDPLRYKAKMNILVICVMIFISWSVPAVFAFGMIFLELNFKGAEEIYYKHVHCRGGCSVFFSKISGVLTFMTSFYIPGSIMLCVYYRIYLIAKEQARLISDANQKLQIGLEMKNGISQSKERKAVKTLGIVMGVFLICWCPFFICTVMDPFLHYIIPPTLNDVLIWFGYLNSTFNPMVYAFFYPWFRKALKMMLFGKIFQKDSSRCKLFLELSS

cells [26] = assay type: functional, cell-based; remark: listed apart in the source
[27] = target: T6, Trace amine-associated receptor 1; assay: Counterscreen for agonists of the human trace amine associated receptor 1 (hTAAR1): Fluorescence-based cell-based high throughput dose response assay to identify hTAAR1 agonist that also desensitize TAAR1 receptor response.; assay type: functional
[28] = target: T7, Long-chain-fatty-acid--AMP ligase FadD28 (Mycobacterium tuberculosis, UniProt P9WQ59); assay: Fluorescence polarization aasay to screen for inhibitors that compete for the binding of FadD28 to a bisubstrate Measured in Biochemical System Using Plate Reader - 2147-01_Inhibitor_Dose_CherryPick_Activity.; assay type: functional, Mycobacterium tuberculosis H37Rv
T7 sequence (P9WQ59 whole entry): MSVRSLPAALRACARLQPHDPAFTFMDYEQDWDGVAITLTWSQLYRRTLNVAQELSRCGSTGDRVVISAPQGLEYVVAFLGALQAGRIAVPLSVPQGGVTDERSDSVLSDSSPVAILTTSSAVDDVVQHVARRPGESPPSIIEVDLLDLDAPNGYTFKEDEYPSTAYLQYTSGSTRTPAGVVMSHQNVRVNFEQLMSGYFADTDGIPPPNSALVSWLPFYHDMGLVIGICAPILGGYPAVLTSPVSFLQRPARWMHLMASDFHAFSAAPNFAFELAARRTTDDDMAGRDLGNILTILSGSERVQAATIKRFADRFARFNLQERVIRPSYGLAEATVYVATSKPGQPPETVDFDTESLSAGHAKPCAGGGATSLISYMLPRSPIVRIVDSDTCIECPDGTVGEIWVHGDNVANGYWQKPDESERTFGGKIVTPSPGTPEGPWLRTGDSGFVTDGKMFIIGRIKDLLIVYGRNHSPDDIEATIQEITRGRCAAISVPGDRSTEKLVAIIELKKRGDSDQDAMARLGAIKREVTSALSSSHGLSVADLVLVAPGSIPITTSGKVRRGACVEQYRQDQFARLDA

Chain of 5-hydroxytryptamine receptor 2A (P35363 whole entry): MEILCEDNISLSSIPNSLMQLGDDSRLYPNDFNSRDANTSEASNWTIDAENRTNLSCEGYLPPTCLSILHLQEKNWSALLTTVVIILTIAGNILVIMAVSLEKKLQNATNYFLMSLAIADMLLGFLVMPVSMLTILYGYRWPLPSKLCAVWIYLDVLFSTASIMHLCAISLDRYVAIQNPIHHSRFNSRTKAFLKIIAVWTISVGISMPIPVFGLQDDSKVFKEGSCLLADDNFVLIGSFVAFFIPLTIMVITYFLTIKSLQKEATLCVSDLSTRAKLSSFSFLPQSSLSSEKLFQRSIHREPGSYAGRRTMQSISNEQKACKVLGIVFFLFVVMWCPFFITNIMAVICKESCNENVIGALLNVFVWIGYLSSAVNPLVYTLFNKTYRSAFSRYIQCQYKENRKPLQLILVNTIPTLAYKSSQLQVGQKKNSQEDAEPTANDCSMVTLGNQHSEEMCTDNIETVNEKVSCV
Chain of Mu-type opioid receptor (P35372 whole entry): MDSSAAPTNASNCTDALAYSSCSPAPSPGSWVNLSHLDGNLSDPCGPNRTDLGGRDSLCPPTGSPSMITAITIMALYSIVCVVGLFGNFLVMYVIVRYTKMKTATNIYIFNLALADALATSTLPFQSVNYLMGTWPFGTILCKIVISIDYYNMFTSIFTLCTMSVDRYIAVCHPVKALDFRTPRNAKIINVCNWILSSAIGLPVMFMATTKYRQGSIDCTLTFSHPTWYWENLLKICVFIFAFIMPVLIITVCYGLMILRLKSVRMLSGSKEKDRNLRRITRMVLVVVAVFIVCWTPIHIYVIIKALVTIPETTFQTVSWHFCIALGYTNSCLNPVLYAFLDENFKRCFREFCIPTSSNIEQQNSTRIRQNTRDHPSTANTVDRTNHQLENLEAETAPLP
Chain of Dual specificity protein phosphatase 3 (P51452 whole entry, the tested form may be a part): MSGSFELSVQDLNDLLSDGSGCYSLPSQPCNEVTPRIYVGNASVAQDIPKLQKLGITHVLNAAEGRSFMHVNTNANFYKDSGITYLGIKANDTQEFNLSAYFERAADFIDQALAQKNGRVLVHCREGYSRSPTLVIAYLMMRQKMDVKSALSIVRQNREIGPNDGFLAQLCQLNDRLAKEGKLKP
Chain of Disintegrin and metalloproteinase domain-containing protein 17 (P78536 whole entry, the tested form may be a part): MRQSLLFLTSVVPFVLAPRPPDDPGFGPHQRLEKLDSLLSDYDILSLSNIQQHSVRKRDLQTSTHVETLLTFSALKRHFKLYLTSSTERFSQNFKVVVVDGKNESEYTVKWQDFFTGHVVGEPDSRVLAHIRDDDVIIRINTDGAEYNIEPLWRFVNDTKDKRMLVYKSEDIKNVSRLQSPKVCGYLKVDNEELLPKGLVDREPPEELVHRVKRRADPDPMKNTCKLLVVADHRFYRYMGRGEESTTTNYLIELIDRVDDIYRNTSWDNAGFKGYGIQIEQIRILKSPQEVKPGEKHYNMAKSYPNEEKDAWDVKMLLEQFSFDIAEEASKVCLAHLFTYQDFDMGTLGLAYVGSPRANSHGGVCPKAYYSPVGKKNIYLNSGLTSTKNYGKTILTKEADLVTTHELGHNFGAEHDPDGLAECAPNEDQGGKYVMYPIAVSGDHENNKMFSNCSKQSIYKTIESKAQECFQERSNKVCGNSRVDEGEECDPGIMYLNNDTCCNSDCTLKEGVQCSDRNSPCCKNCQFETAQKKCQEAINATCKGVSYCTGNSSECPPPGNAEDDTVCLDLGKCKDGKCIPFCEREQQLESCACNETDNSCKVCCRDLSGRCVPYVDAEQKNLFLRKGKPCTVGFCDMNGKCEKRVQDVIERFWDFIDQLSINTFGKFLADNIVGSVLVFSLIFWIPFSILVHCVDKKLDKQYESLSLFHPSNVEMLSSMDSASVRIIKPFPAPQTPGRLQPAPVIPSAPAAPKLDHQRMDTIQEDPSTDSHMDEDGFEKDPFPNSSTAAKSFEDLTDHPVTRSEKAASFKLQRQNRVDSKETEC

## NS(=O)(=O)c1ccc(NCc2cc(Cl)ccc2OCc2ccccc2F)cc1
[1]
  IC50: > 69.5 µM (inactive)
[2]
  IC50: 10.9 µM (inactive)

## COc1ccc(-c2ccc(NC(=O)c3ccco3)cc2)nn1
[3]
  EC50: 7.33 µM (active)
BJ [4]
  EC50: 21.8 µM (active)
BJ [5]
  EC50: 5.74 µM (active)
[6]
  AC50: 15.2 µM (active)
[7]
  AC50: 21.9 µM (active)
[8]
  AC50: 3.8 µM (active)
[9]
  EC50: 4.34 µM (active)
[10]
  AC50: 11.1 µM (active)
[11]
  AC50: 3.59 µM (active)
BJ [12]
  EC50: 10.1 µM (active)
Cells [13]
  IC50: > 67.6 µM (inactive)
[14]
  EC50: 5.37 µM (active)
[15]
  IC50: > 67.6 µM (inactive)
HEK293
  AC50: 1.51 µM (active)

## O=C(c1ccco1)N1CCN(Cc2ccc(F)cc2)CC1
[16]
  EC50: 7.5 µM (active)
Mu-type opioid receptor
  EC50: 92.5 µM (inactive)

## CCc1ccc(CN2CCN(C(=O)c3ccco3)CC2)cc1
[16]
  EC50: 0.219 µM (active)
Mu-type opioid receptor
  EC50: 92.5 µM (inactive)

## CCCCC(=O)Nc1ccc(C(=O)NNC(=O)c2ccc(C)c(Br)c2)cc1
[17]
  IC50: 17.2 µM (active)
[18]
  IC50: 16.6 µM (active)
[19]
  IC50: 3.17 µM (active)
[20]
  IC50: 4.58 µM (active)
[21]
  IC50: 10.2 µM (active)
[22]
  IC50: 28 µM (inactive)

## Cc1ccc(S(=O)(=O)Nc2ccc(-c3nnc(SCc4ccccc4Cl)o3)cc2)cc1
[23]
  AC50: 3.88 µM (active)
[1]
  IC50: > 69.5 µM (inactive)
[2]
  IC50: > 69.5 µM (inactive)

## COc1ccc(CNCCc2ccccc2F)c(OC)c1C
Cells [24]
  IC50: > 29.9 µM (inactive)
[25]
  EC50: 0.498 µM (active)
Cells [26]
  EC50: > 29.9 µM (inactive)
[27]
  IC50: 3.46 µM (active)

## O=C(COc1ccc(/C=N/NC(=O)c2ccccc2O)cc1)Nc1ccccc1
[17]
  IC50: 39.9 µM (inactive)
[18]
  IC50: 16.4 µM (active)
[19]
  IC50: 4.22 µM (active)
[20]
  IC50: 3.88 µM (active)
[21]
  IC50: 5.32 µM (active)
[22]
  IC50: 11.7 µM (active)

## COC(=O)c1ccc(COc2ccc(/C=N/Nc3cccc(C(=O)O)c3)cc2)cc1
[28]
  AC50: 48.9 µM (active)

## CCCCCCCCN1C(=O)[C@@H](CC(=O)NCCc2ccccc2OC)C[C@@]2(C(=O)OC)C1=C[C@H](C(C)(C)C)O[C@@H]2C
Cells [24]
  IC50: > 29.9 µM (inactive)
[25]
  EC50: 5.23 µM (active)
Cells [26]
  EC50: > 29.9 µM (inactive)
[27]
  IC50: 6.93 µM (active)

## O=C(NCCc1ccccc1)c1nc(C(F)(F)F)[nH]c1-c1ccccc1
Cells [24]
  IC50: > 29.9 µM (inactive)
[25]
  EC50: 4.78 µM (active)
Cells [26]
  EC50: > 29.9 µM (inactive)
[27]
  IC50: 9.43 µM (active)

## COC(=O)Nc1nc2ccc(C(=O)c3cccs3)cc2[nH]1 [NOCODAZOLE]
[15]
  IC50: > 0.833 µM (active)
